This note sets out measurements from patent publication US5886178A, “3-aroylbenzylpyridazinone derivatives” (Syntex (U.S.A.) Inc., priority 1997, dated 1999).

A short description of test [1]: Carrageenan-induced paw edema in the rat (anti-inflammatory activity). In kind it is in vivo. The settings on record: 3 h, 30 mg/Kg, oral, female rats, read-out: % inhibition of increase in hind paw weight. The protocol:
The anti-inflammatory activity of compounds of this invention was determined by measuring the inhibition of carrageenan-induced paw edema in the rat, using a modification of the method described in Winter C. k et al (1962) "Carrageenan-Induced Edema in Hind Paw of the Rat as an Assay for Anti-inflammatory Drugs". Proc. Soc. Exp. Biol. Med. 111: 544-547. This assay has been used as a primary in vivo screen for anti-inflammatory activity of most NSAIDs, and is considered predictive of human efficacy. Briefly, test materials were administered orally to female rats in a volume of 1 ml prepared as solutions or suspensions in an aqueous vehicle containing 0.9% NaCl, 0.5% sodium carboxymethyl-cellulose, 0.4% polysorbate 80, 0.9% benzyl alcohol and 97.3% distilled water. Control rats received vehicle alone. After 1 hr 0.05 ml of a 0.5% solution of Carrageenan (Type IV Lambda, Sigma Chemical Co.) in 0.9% saline was injected into the subplantar region of the right hind paw. Three hours later the rats were euthanized in a carbon dioxide atmosphere; hind paws were removed by severing at the tatso-crural joint; and the left and right paws were weighed. The increase in weight of the right paw over the left paw was obtained for each animal and the mean increases were calculated for each group. The anti-inflammatory activity of the test materials is expressed as the percent inhibition of the increase in hind paw weight of the test group relative to the vehicle-dosed control group.
The anti-inflammatory activities (expressed as % inhibition) of some of the compounds of the invention were: […]

Test [2] has as its target T1, COX I (Homo sapiens, UniProt P23219). As to the kind of experiment: Inhibition of COX I in vitro, partially purified enzyme, radiometric assay. Type of test: biochemical. On the set-up: made in house. Particulars: 20 micromolar arachidonic acid. The protocol:
(§1) The COX I and COX II inhibitory activity of compounds of this invention in vitro was determined using partially purified COX I and COX II enzymes, prepared as described in J. Barnett et al, Biochim. Biophys.
(§2) COX I and COX II samples were diluted with Tris-HCl buffer (50 mM Tris-HCl, pH 7.9) containing 2 mM EDTA and 10% glycerol and reconstituted by incubating first with 2 mM phenol for 5 minutes and then with 1 micromolar hematin for an additional 5 minutes. 125 μl of the reconstituted COX I or COX II enzyme were preincubated for 10 minutes at room temperature in a shaking water bath with the compounds of the invention dissolved in 2-15 μl of DMSO or the carrier vehicles (control samples). The enzyme reaction was initiated by adding 25 μl of 1-[14C]arachidonic acid (80,000-100,000 cpm/tube; 20 micromolar final concentration) and the reaction was allowed to continue for an additional 45 seconds. The reaction was terminated by adding 100 μl of 2N HCl and 750 μl water. An aliquot (950 μl) of the reaction mixture was loaded onto a 1 ml C18 Sep-Pak column (J. T. Baker, Phillipsburg, N.J.) which had been previously washed with 2-3 ml methanol and equilibrated with 5-6 ml distilled water. Oxygenated products were quantitatively eluted with 3 ml of acetonitrile/water/acetic acid (50:50:0.1, v/v) and the radioactivity in the eluate determined in a scintillation counter.

Test [3] concerns the target T2, COX II (Homo sapiens, UniProt P35354).
T2 sequence (P35354 18-604): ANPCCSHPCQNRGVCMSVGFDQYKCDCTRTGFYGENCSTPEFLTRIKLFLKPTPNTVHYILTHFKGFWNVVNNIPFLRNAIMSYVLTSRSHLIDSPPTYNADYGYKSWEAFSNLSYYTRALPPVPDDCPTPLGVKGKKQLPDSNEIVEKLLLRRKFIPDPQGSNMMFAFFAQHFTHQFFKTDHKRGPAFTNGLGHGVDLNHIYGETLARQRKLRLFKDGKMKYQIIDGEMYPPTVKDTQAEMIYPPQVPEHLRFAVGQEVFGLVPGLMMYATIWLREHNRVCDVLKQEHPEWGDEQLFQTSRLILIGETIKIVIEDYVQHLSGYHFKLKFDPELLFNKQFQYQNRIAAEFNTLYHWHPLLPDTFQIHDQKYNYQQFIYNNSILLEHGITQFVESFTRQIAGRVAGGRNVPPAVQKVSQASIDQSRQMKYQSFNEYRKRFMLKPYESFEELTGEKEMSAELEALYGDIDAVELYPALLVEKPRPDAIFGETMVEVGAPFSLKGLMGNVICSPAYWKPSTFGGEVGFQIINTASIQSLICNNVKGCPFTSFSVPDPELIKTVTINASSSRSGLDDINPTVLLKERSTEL
As to the kind of experiment: Inhibition of COX II in vitro, partially purified enzyme, radiometric assay. In kind it is biochemical. On the set-up: made in house. Particulars: 20 micromolar arachidonic acid. The protocol: as §1, §2

In test [4] the target is T1, COX I. As to the kind of experiment: Inhibition of COX I in a cell based assay (human promonocytic THP cells, TXB2 ELISA). On the set-up: endogenous in cells; host or cells: human promonocytic THP cells, PMA-treated. On the procedure: (§3) The COX I and COX II inhibitory activity of compounds of this invention in a cell based assay was determined as described below.
The inhibitory activity of the test compounds against cell associated COX-1 was measured using human promonocytic THP cells. Cells were plated in 96-well microtiter plates at a density of 8×10^4 cells/well in RPMI-1640 medium (Gibco). COX-1 activity was initiated by incubating the cells with 0.1μM phorbol 12-myristate 13-acetate (PMA, Sigma) in dimethyl sulfoxide (DMSO, Aldrich) at 37° C. After 40-48 hours, the medium was removed, and the cells were washed twice with phosphate buffered saline (PBS, Gibco). 225 μl/well of fresh medium containing desired concentrations of the test compounds in DMSO, or the carrier vehicles (control wells), was added and the cells incubated at 37° C. for 30 minutes; after which 5 μM calcium ionophore A23187 (Sigma) was added and the incubation was continued for an additional 10 minutes. The reaction was terminated by transferring the plates to ice. The culture supernatants were transferred and appropriately diluted and the amount of thromboxane B2 (TXB2) present in each supernatant was quantitated using an ELISA kit (Cayman Chemicals).
(§4) The COX I and COX II inhibitory activities in the cell based assay (expressed as IC50) of some compounds of the invention were: […]
(In an ELISA, binding on a coated surface is turned into a signal by an enzyme label.)

For test [5], the target named is T2, COX II. In words: Inhibition of COX II in a cell based assay (human foreskin fibroblasts, PGE2 ELISA). Set-up: host or cells: primary human foreskin fibroblasts (HFF), induced with PMA and human interleukin-1. Particulars: human foreskin fibroblasts (HFF). The protocol: as §3
The inhibitory activity of test compounds against cell associated COX-2 was measured using primary cultures of human foreskin fibroblasts (HFF). HFF cultures were obtained from ATCC, grown in DMEM medium (Gibco) and used between 13-30 passages. Cells were plated in 96-well microtiter plates at a density of 6-8×10^4 cells/well in DMEM containing 10% fetal calf serum (Sigma) and cultured at 37° C. until they became confluent. The medium was removed and the cells were washed once with PBS. COX-2 activity was induced by incubating the cells with fresh DMEM containing 0.1 μM phorbol 12-myristate 13-acetate (PMA, Sigma) and 1ng/ml of human interleukin-1 (Sigma) at 37° C. After 16 h the medium was removed and the cells were washed twice with phosphate buffered saline (PBS, Gibco). 200 μl/well of fresh medium containing desired concentrations of the test compounds in DMSO, or the carrier vehicle (control wells) was added and the cells incubated at 37° C. for 30 minutes; after which 5 μM calcium ionophore A23187 (Sigma) was added and the incubation was continued for an additional 10 minutes. The reaction was terminated by transferring the plates to ice. The culture supernatants were transferred and appropriately diluted, and the amount of prostaglandin E2 (PGE2) present in each supernatant was quantitated using an ELISA kit (Cayman Chemicals).
as §4

The subject of test [6] is prostaglandin E2 synthesis. As to the kind of experiment: Inhibition of eicosanoid (PGE2) synthesis in vivo, carrageenan air-pouch model in rats. On the set-up: species or system rat. The settings on record: oral, male rats. On the procedure: In this assay, an air-pouch is created in the rat and the PGE2 levels in the air-pouch exudate are measured by enzyme immunoassay. Briefly, male rats were anesthetized using a 60:40 CO2 :O2 mixture and subsequently injected subcutaneously with 20 ml of sterilized air, under aseptic conditions, in the proximal area of the dorsum. This injection of sterile air causes the creation of a subcutaneous "air pouch". The next day, a further 10 ml of sterile air was injected into the previously formed pouch using the same technique. […] Control rats received vehicle alone. After 30 minutes, 5 ml of a 0.5% solution of carrageenan (Sigma, Lambda Type IV) was injected into the air pouch. The rats were euthanized 3 hr after the compound administration. […] The total exudate volume was recorded, and the samples were analyzed for PGE2 and 6-keto PGF1 by ELISA (Titerzyme®, PerSeptive Diagnostics) and TxB2 by radioimmuno assay (New England Nuclear Research, Catalog No. NEK-037), according to the manufacturer's directions.
The mean concentrations of PGE2 were calculated for each group. The anti-inflammatory activity of test materials is expressed as the percent inhibition of PGE2 formation in the test group relative to the control group.

pIC50: −log10 of the molar value.

T1 sequence (P23219 24-599): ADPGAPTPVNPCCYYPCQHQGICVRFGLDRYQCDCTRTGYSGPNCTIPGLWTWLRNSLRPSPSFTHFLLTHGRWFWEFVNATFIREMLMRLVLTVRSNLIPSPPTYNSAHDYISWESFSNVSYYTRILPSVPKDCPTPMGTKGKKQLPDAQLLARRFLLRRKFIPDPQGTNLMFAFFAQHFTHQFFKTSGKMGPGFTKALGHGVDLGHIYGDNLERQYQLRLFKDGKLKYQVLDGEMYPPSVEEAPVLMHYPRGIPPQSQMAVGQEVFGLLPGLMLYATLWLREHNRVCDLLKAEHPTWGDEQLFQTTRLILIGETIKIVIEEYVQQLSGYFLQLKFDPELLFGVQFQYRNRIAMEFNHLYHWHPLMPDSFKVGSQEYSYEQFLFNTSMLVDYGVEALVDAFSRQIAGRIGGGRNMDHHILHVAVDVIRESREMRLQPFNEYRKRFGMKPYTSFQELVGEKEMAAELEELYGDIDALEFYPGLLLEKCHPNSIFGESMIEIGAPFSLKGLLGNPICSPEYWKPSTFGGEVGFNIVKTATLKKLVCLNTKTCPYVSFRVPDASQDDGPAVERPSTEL

As for `COc1ccc(C(=O)c2c(Br)cc(C)cc2Br)cc1Cc1ccc(=O)[nH]n1` [Cpd 39, 6-[3-(2,6-dibromo-4-methylbenzoyl)-6-methoxybenzyl]-2H-pyridazin-3-one], the inhibition in vivo at 30 mg/kg in test [1] came to 33%. Moreover, the pIC50 in test [2] is 4.00; in test [3], 6.00; in test [4] it was 4.59; in test [5] it was 6.00.

As to `O=C(c1cccc(Cc2ccc(=O)[nH]n2)c1)c1c(Cl)cc(Cl)cc1Cl` [Cpd 78, 6-[3-(2,4,6-trichlorobenzoyl)benzyl]-2H-pyridazin-3-one], in test [1], the inhibition in vivo at 30 mg/kg amounted to 22%. For the same molecule, the results for the pIC50 in test [2], in test [3] and in test [5] were 3.13, 5.70 and 6.52, respectively.

In the case of `COc1ccc(C(=O)c2c(Cl)cc(Cl)cc2Cl)cc1Cc1ccc(=O)n(C)n1` [Cpd 31, 6-[3-(2,4,6-trichlorobenzoyl)-6-methoxybenzyl]-2-methyl-2H-pyridazin-3-one], the inhibition in vivo at 30 mg/kg in test [1] worked out at 38%. Besides, the pIC50 in test [2] is 3.00; in test [3], 5.89; in test [5] it was 5.40.

As to `Cc1ccc(C(=O)c2c(Cl)cc(Cl)cc2Cl)cc1Cc1ccc(=O)[nH]n1` [Cpd 61, 6-[3-(2,4,6-trichlorobenzoyl)-6-methylbenzyl]-2H-pyridazin-3-one], the pIC50 in test [2] was 3.51; in test [3], 6.74; in test [5], 6.32.

As for `Cc1ccc(C(=O)c2c(Cl)cc(Cl)cc2Cl)cc1Cc1ccc(=O)n(C)n1` [Cpd 62, 6-[3-(2,4,6-trichlorobenzoyl)-6-methylbenzyl]-2-methyl-2H-pyridazin-3-one], in test [1], the inhibition in vivo at 30 mg/kg stood at 33%. The pIC50 in test [2] is 3.52; in test [3], 6.74; in test [5], 6.52.

Regarding `CSc1ccc(C(=O)c2cccc(Cc3ccc(=O)[nH]n3)c2C)cc1` [Cpd 10, 6-[3-(4-methylthiobenzoyl)-2-methylbenzyl]-2H-pyridazin-3-one], the “% inhibition of air pouch PGE2 formation” value in test [6] (10 mg/Kg) turned out to be 24%.

For the molecule `O=C(c1ccc(F)c(Cc2ccc(=O)[nH]n2)c1)c1c(Cl)cc(Cl)cc1Cl` [Cpd 77, 6-[3-(2,4,6-trichlorobenzoyl)-6-fluorobenzyl]-2H-pyridazin-3-one], the “% inhibition of air pouch PGE2 formation” value in test [6] (30 mg/Kg) was 53%. Moreover, the negative logarithm of the IC50 (pIC50) in test [2] is 3.52; in test [3] it was 6.85; in test [4], 4.77; in test [5], 7.52.

On to `CSc1ccc(C(=O)c2cccc(Cc3ccc(=O)[nH]n3)c2Cl)cc1` [Cpd 5, 6-[3-(4-methylthio-benzoyl)-2-chlorobenzyl]-2H-pyridazin-3-one], for which the “% inhibition of air pouch PGE2 formation” value in test [6] (10 mg/Kg) is given as 32%.

Consider `O=C(c1ccc(Cl)c(Cc2ccc(=O)[nH]n2)c1)c1c(Cl)cc(Cl)cc1Cl` [Cpd 73, 6-[3-(2,4,6-trichlorobenzoyl)-6-chlorobenzyl]-2H-pyridazin-3-one], for which the inhibition in vivo at 30 mg/kg in test [1] was found to be 33%. The pIC50 in test [2] was 3.37; in test [3], 6.80; in test [4] it was 4.68; in test [5] it was 6.70.

As to `COc1ccc(C(=O)c2c(Cl)cc(C)cc2Cl)cc1Cc1ccc(=O)[nH]n1` [Cpd 28, 6-[3-(2,6-dichloro-4-methylbenzoyl)-6-methoxybenzyl]-2H-pyridazin-3-one], in test [1], the inhibition in vivo at 30 mg/kg was determined as 21%. For the same molecule, the figures for the pIC50 in test [2], in test [3] and in test [5] were 4.00, 5.70 and 5.47, respectively.

`COc1ccc(C(=O)c2c(C)cc(C)cc2C)cc1Cc1ccc(=O)[nH]n1` [Cpd 44, 6-[3-(2,4,6-trimethylbenzoyl)-6-methoxybenzyl]-2H-pyridazin-3-one]: the inhibition in vivo at 30 mg/kg in test [1] was 19%. The pIC50 in test [2] is 4.00; in test [3] it was 5.89; in test [4] it was 4.80; in test [5] it was 5.92.

With `COc1ccc(C(=O)c2c(Cl)cc(Cl)cc2Cl)cc1Cc1ccc(=O)[nH]n1` [Cpd 26, 6-[3-(2,4,6-trichlorobenzoyl)-6-methoxybenzyl]-2H-pyridazin-3-one], in test [1], the inhibition in vivo at 30 mg/kg is 24%. Moreover, the pIC50 in test [2] is 3.27; in test [3], 6.22; in test [4], 4.72; in test [5] it was 6.52.

The pIC50 is the negative decadic logarithm of the IC50, by convention in mol/L. A high value points to a small IC50.
